# Results reported in patent publication US20250034216A1, “STEREOSELECTIVE COVALENT LIGANDS FOR ONCOGENIC AND IMMUNOLOGICAL PROTEINS” (The Scripps Research Institute, priority 2021, published 2025).
# Key:
# [1] = target: T1, PDE3B_C311 (Homo sapiens, UniProt Q13370); test: IA-DTB cysteine engagement; assay type: binding; details: 22Rv1 cells, 20 μM probe, 1 h, relative to DMSO
# T1 construct: endogenous in cells; host or cells: 22Rv1
# Method in brief: (§1)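 In-situ probe treatment of cells; lysate 2 mg/mL, IA-DTB 1 h RT; MeOH/CHCl3 precipitation, DTT/iodoacetamide, trypsin; streptavidin enrichment; TMT labeling, high-pH fractionation. Ratio = TMT reporter intensity / mean DMSO channels, median-normalized.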
# [2] = target: T2, NSD2_C1018 (Homo sapiens, UniProt O96028); test: IA-DTB cysteine engagement; assay type: binding; details: 22Rv1 cells, 20 μM probe, 1 h, relative to DMSO
# T2 construct: endogenous in cells; host or cells: 22Rv1
# T2 sequence (O96028 1-1365): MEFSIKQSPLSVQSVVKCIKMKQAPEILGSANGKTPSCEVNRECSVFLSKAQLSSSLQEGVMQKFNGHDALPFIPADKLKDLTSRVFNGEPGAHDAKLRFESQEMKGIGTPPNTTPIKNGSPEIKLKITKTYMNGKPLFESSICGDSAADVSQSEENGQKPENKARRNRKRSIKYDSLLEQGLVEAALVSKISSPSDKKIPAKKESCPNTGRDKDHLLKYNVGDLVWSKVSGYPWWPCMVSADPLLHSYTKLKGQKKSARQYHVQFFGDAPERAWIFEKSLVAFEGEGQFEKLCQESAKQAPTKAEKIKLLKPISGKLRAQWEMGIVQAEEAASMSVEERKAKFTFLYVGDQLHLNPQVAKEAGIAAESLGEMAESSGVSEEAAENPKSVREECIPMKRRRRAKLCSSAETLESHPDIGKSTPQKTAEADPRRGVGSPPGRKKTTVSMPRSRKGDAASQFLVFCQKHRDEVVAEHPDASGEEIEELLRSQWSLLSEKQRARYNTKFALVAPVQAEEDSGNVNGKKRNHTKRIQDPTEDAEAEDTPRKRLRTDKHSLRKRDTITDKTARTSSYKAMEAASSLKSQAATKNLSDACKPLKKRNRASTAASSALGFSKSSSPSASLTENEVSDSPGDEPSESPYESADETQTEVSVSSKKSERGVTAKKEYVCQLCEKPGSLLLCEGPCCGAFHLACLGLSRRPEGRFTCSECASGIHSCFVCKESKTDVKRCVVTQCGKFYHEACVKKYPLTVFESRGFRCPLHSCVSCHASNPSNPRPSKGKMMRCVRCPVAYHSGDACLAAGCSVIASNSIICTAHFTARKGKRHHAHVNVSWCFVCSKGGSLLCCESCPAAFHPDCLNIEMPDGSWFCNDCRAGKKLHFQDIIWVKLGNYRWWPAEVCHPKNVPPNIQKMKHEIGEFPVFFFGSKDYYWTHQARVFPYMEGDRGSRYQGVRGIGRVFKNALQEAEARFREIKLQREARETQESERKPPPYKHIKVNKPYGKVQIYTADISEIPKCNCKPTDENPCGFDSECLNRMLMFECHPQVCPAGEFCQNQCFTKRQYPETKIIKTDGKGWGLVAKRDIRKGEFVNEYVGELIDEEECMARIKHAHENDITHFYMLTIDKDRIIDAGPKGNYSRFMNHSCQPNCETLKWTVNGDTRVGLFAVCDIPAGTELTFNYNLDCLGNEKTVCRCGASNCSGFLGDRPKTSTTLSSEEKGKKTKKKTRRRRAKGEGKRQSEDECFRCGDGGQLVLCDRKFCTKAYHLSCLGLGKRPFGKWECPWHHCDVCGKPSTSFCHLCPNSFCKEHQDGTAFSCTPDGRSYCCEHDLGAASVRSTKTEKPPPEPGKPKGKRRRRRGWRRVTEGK
# Method in brief: as §1
# T1 sequence (Q13370 whole entry): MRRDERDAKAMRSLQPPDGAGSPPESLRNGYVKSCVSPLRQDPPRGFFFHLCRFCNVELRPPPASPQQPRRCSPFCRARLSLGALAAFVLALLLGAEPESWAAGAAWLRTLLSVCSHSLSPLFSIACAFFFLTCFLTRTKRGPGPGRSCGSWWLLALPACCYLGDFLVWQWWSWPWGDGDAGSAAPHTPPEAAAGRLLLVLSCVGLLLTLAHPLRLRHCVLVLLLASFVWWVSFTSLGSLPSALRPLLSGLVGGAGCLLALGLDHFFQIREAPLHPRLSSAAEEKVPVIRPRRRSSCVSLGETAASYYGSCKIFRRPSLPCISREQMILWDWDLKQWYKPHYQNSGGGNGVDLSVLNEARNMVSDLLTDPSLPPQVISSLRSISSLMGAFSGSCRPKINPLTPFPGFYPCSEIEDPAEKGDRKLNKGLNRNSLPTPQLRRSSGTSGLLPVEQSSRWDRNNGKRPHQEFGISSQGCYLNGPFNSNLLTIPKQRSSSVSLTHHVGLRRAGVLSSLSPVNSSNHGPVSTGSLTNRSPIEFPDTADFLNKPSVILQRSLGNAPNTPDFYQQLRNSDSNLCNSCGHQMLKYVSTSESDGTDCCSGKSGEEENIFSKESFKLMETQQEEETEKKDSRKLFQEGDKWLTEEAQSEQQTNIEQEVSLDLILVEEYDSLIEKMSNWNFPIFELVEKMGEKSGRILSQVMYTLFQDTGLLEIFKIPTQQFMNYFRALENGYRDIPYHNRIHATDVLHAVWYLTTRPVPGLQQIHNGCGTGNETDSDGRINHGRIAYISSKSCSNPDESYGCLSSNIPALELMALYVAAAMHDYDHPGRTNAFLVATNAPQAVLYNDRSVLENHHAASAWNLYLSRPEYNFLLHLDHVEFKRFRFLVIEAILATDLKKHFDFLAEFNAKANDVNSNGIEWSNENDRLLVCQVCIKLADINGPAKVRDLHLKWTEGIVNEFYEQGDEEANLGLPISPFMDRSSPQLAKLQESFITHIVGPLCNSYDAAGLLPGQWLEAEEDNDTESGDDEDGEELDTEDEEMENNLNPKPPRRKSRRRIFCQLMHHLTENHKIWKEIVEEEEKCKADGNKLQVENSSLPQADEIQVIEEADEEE
smiles,measurement,setting,value
"C=CC(=O)N1C[C@@H](c2ccc(Br)cc2)[C@H]1C(=O)Nc1cccc2cccnc12 [MY-1A, (2S,3R)-1-acryloyl-3-(4-bromophenyl)-N-(quinolin-8-yl)azetidine-2-carboxamide]",% engagement PDE3B_C311,[1],57.5%
same,% engagement NSD2_C1018,[2],16.5%
"C=CC(=O)N1C[C@H](c2ccc(Br)cc2)[C@@H]1C(=O)Nc1cccc2cccnc12 [MY-1B, (2R,3S)-1-acryloyl-3-(4-bromophenyl)-N-(quinolin-8-yl)azetidine-2-carboxamide]",% engagement PDE3B_C311,[1],58%
same,% engagement NSD2_C1018,[2],43.75%
"C=CC(=O)N1C[C@H](c2ccc(Br)cc2)[C@H]1C(=O)Nc1cccc2cccnc12 [MY-3A, (2S,3S)-1-acryloyl-3-(4-bromophenyl)-N-(quinolin-8-yl)azetidine-2-carboxamide]",% engagement PDE3B_C311,[1],49%
same,% engagement NSD2_C1018,[2],36.75%
"C=CC(=O)N1C[C@H](c2ccc(Br)cc2)[C@H]1C(=O)Nc1cccc2cccnc12 [MY-3B, (2S,3S)-1-acryloyl-3-(4-bromophenyl)-N-(quinolin-8-yl)azetidine-2-carboxamide]",% engagement PDE3B_C311,[1],75.5%
same,% engagement NSD2_C1018,[2],67%
